Some test systems named below: EKVX NSCLC; 786-0 renal; UACC-257 melanoma; SK-OV-3 ovarian; CAKI-1 renal; MALME-3M melanoma; SF-268 CNS; SK-MEL-5 melanoma; LOX IMVI melanoma; HOP-62 NSCLC.
Common to all, as to test: DTP human tumour cell line panel, 48 h

Experimental findings from PubChem BioAssay (NCI) are described below.

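Briefly, cells in 96-well plates were exposed to five compound concentrations for 48 h, and endpoints were estimated by linear interpolation. Abbreviation: GI50, concentration required for 50% inhibition of growth. TGI denotes the concentration required for complete inhibition of growth.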 Where only a bound is given, the exact number is not on record here.

For orientation: TGI means the concentration giving total growth inhibition. `CN(CC(=O)O)S(=O)(=O)c1ccc2ccccc2c1`: the TGI in the test with EKVX NSCLC, in the test with 786-0 renal, with UACC-257 melanoma, with SK-OV-3 ovarian, in the test on CAKI-1 renal and in the test with MALME-3M melanoma was more than 100 µM throughout. Further, the TGI with SF-268 CNS, in the test on SK-MEL-5 melanoma and in the test with LOX IMVI melanoma was more than 100 µM in each case.
As for `CCNC1C2(CCCCC2)NC(=O)C12CCCCC2` (stereo unspecified), the TGI in the test on EKVX NSCLC, with 786-0 renal, in the test on UACC-257 melanoma, in the test on HOP-62 NSCLC, in the test with SK-OV-3 ovarian and with CAKI-1 renal was more than 100 µM throughout. For the same molecule, the TGI in the test on MALME-3M melanoma and with SK-MEL-5 melanoma was more than 100 µM throughout.
As to `O=[S@@]1Nc2ccc(Br)cc2S1`, the TGI in the test on EKVX NSCLC, in the test on 786-0 renal, in the test on UACC-257 melanoma, with SK-OV-3 ovarian, in the test on CAKI-1 renal and with MALME-3M melanoma was more than 100 µM each time. For the same molecule, the TGI with SF-268 CNS, with SK-MEL-5 melanoma and with LOX IMVI melanoma was more than 100 µM each time.
Take `N#CC(C#N)=c1ccc(=C2NCC3CCCN23)cc1` (stereo unspecified): the TGI in the test with 786-0 renal, in the test on UACC-257 melanoma, with HOP-62 NSCLC, in the test with SK-OV-3 ovarian, with CAKI-1 renal and in the test with MALME-3M melanoma was more than 100 µM each time. Also, the TGI with SF-268 CNS, in the test on SK-MEL-5 melanoma and with LOX IMVI melanoma was more than 100 µM throughout.
One may read the GI50 as the concentration giving 50% growth inhibition. Take `CNC(=O)c1cc(Oc2ccc3nc(NC(=O)Nc4ccc(Cl)c(C(F)(F)F)c4)sc3c2)ccn1`: the GI50 is 1.79 µM with 786-0 renal; 3.37 µM in the test on UACC-257 melanoma; 1.94 µM with HOP-62 NSCLC; 1.89 µM in the test on SK-OV-3 ovarian; 2.34 µM with SF-268 CNS; 2.68 µM in the test with LOX IMVI melanoma. Further, the TGI in the test on 786-0 renal is 3.4 µM; in the test on UACC-257 melanoma, more than 100 µM; in the test with HOP-62 NSCLC it was 4.74 µM; in the test on SK-OV-3 ovarian, 4.21 µM; in the test on SF-268 CNS, 16.4 µM; in the test with LOX IMVI melanoma, more than 100 µM.
As for `CC1CN1P1(N2CC2C)=NP(N2CC2C)(N2CC2C)=NP(N2CC2C)(N2CC2C)=N1` (stereo unspecified), the TGI in the test on EKVX NSCLC, in the test on 786-0 renal, with SK-OV-3 ovarian, in the test on CAKI-1 renal, with MALME-3M melanoma and in the test on SF-268 CNS was more than 50 µM in each case. In the test with SK-MEL-5 melanoma, this molecule registered a TGI of more than 50 µM.
As to `CCOC(=O)Nc1nc2ccc(OCC)cc2s1`, the GI50 with 786-0 renal was more than 100 µM; in the test on UACC-257 melanoma, more than 100 µM; with HOP-62 NSCLC, 39.4 µM; with SK-OV-3 ovarian it was more than 100 µM; in the test on CAKI-1 renal it was more than 100 µM; in the test on MALME-3M melanoma, more than 100 µM. Further, the GI50 with SF-268 CNS was 84.6 µM; in the test with SK-MEL-5 melanoma, 5.56 µM; in the test with LOX IMVI melanoma it was 41.7 µM. The TGI in the test with 786-0 renal, with UACC-257 melanoma, in the test on HOP-62 NSCLC, in the test on SK-OV-3 ovarian, in the test with CAKI-1 renal and with MALME-3M melanoma was more than 100 µM each time. For the same molecule, the TGI with SF-268 CNS, with SK-MEL-5 melanoma and in the test on LOX IMVI melanoma was more than 100 µM in each case.
For `Clc1cccc(Cc2cn3cc(-c4ccccc4)nc3s2)c1Cl`, the GI50 in the test with 786-0 renal is more than 100 µM; in the test on UACC-257 melanoma it was 67.3 µM; with HOP-62 NSCLC, 3.9 µM; in the test on SK-OV-3 ovarian it was 10.3 µM; in the test on CAKI-1 renal, more than 100 µM; with MALME-3M melanoma, 56.2 µM. The GI50 with SF-268 CNS is 59.9 µM; in the test with SK-MEL-5 melanoma, more than 100 µM; in the test on LOX IMVI melanoma, 14.5 µM. The TGI in the test with 786-0 renal was more than 100 µM; in the test with UACC-257 melanoma, more than 100 µM; with HOP-62 NSCLC it was 47.7 µM; in the test on SK-OV-3 ovarian, 97.6 µM; in the test on CAKI-1 renal it was more than 100 µM; in the test with MALME-3M melanoma, more than 100 µM. For the same molecule, the TGI with SF-268 CNS, in the test with SK-MEL-5 melanoma and in the test on LOX IMVI melanoma was more than 100 µM each time.
In the case of `CCOC(=O)C1=C(C)CC2C(=O)OC(=O)C2C1(C)C` (stereo unspecified), the TGI in the test on EKVX NSCLC, in the test with 786-0 renal, in the test with UACC-257 melanoma, in the test with SK-OV-3 ovarian, in the test with MALME-3M melanoma and with SF-268 CNS was more than 100 µM in each case. Also, the TGI in the test on SK-MEL-5 melanoma is more than 100 µM.
`CSCCCN(CCCSC)CCCSC`: the TGI in the test on EKVX NSCLC, with 786-0 renal, with UACC-257 melanoma, in the test on HOP-62 NSCLC, with SK-OV-3 ovarian and in the test with SF-268 CNS was more than 100 µM throughout. Besides, the TGI with SK-MEL-5 melanoma and in the test with LOX IMVI melanoma was more than 100 µM in each case.
For the molecule `Nc1cc2nc3ccccc3sc-2cc1=O`, the GI50 is 4.21 µM in the test on 786-0 renal; 2.3 µM in the test with UACC-257 melanoma; 2.51 µM in the test on HOP-62 NSCLC; 13.1 µM in the test on SK-OV-3 ovarian; 5.66 µM with CAKI-1 renal; 2.04 µM in the test with MALME-3M melanoma. Further, the GI50 with SF-268 CNS was 2.53 µM; in the test with SK-MEL-5 melanoma it was 1.55 µM; with LOX IMVI melanoma it was 1.48 µM. Besides, the TGI in the test on 786-0 renal came out at 14.5 µM; in the test on UACC-257 melanoma, 5.83 µM; with HOP-62 NSCLC it was 5.71 µM; in the test with SK-OV-3 ovarian it was 53.5 µM; with CAKI-1 renal, 22.1 µM; in the test with MALME-3M melanoma, 3.62 µM. The values for the TGI in the test on SF-268 CNS, in the test on SK-MEL-5 melanoma and in the test with LOX IMVI melanoma were 8.67 µM, 2.93 µM and 3.74 µM, respectively.
Turning to `COc1c2ccoc2c(/C=C/C=O)c2oc(-c3ccccc3)cc(=O)c12`, the GI50 in the test on 786-0 renal is 26.9 µM; with UACC-257 melanoma, 11.5 µM; in the test on HOP-62 NSCLC, 2.49 µM; with SK-OV-3 ovarian it was 6.34 µM; with CAKI-1 renal, 15.4 µM; with MALME-3M melanoma, 3.57 µM. Further, the GI50 in the test on SF-268 CNS is 4.23 µM; in the test with SK-MEL-5 melanoma it was 3.04 µM; with LOX IMVI melanoma, 1.48 µM. Besides, the TGI with 786-0 renal is more than 100 µM; in the test on UACC-257 melanoma it was 24.2 µM; with HOP-62 NSCLC, 9.48 µM; in the test on SK-OV-3 ovarian, 42.6 µM; with CAKI-1 renal it was more than 100 µM; in the test on MALME-3M melanoma it was 9.17 µM. In addition, the TGI in the test on SF-268 CNS is more than 100 µM; in the test with SK-MEL-5 melanoma it was 12.3 µM; in the test with LOX IMVI melanoma it was 2.8 µM.
